Where two headings read alike, the source gives them in different places.
How the values were obtained:
Type in all cases: cell-based
SK-MEL-28 = assay: SRB colorimetric cell growth inhibition assay, SK-MEL-28
Method in brief: (§1)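 Cells are kept under uninterrupted exposure to compound. Staining with sulforhodamine B then measures cell growth and viability. Triplicate data give mean ± SD, from which growth inhibition, total growth inhibition and lethal concentration values follow.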

A-549 = assay: SRB colorimetric cell growth inhibition assay, A-549; conditions: for GI50: GI=growth inhibition, read-out: GI50 A-549; for CC50: LC=cell killing (cytotoxic effect); for IC (TGI): TGI=total growth inhibition (cytostatic effect), read-out: TGI A-549
Method in brief: as §1

LoVo-Dox = assay: SRB colorimetric cell growth inhibition assay, LoVo-Dox (MDR)
Method in brief: as §1

HT-29 = assay: SRB colorimetric cell growth inhibition assay, HT-29; conditions: Homo sapiens; for GI50: GI=growth inhibition, read-out: GI50 HT-29; for CC50: LC=cell killing (cytotoxic effect); for IC (TGI): TGI=total growth inhibition (cytostatic effect), read-out: TGI HT-29
Method in brief: as §1

IGROV = assay: SRB colorimetric cell growth inhibition assay, IGROV; conditions: Homo sapiens, IGROV; for GI50: GI=growth inhibition, read-out: GI50 IGROV; for CC50: LC=cell killing (cytotoxic effect), read-out: LC50 IGROV; for IC (TGI): TGI=total growth inhibition (cytostatic effect), read-out: TGI IGROV
Method in brief: as §1

K-562 = assay: SRB colorimetric cell growth inhibition assay, K-562; conditions: Homo sapiens, K562, K-562; for GI50: GI=growth inhibition, read-out: GI50 K-562; for CC50: LC=cell killing (cytotoxic effect), read-out: LC50 K-562; for IC (TGI): TGI=total growth inhibition (cytostatic effect), read-out: TGI K-562
Method in brief: as §1

SKOV-3 = assay: SRB colorimetric cell growth inhibition assay, SKOV-3; conditions: Homo sapiens; for GI50: SK-OV-3, SKOV-3, GI=growth inhibition, read-out: GI50 SKOV-3; for IC (TGI): TGI=total growth inhibition (cytostatic effect), read-out: TGI SKOV-3
From the text: (§2) Inhibition of Cell Growth by Colorimetric Assay.
(§3) A colorimetric type of assay, using sulforhodamine B (SRB) reaction has been adapted for a quantitative measurement of cell growth and viability (following the technique described by P. A. Skehan, et al., J. Natl. Cancer Inst. 1990, 82, 1107-1112).
(§4) This form of assay employs 96 well cell culture microplates of 9 mm diameter (T. Mosmann et al., J. of Immunological Methods 1983, 65, 55-63; G. T. Faircloth et al., J. of Tissue and Culture Methods 1988, 11, 201-205).
(§5) Most of the cell lines are obtained from American Type Culture Collection (ATCC) derived from different human cancer types.
(§6) The values for mean +/− SD of data from triplicate wells are calculated. Some parameters for cellular responses can be calculated: GI=growth inhibition, TGI=total growth inhibition (cytostatic effect) and LC=cell killing (cytotoxic effect).

IGROV-ET = assay: SRB colorimetric cell growth inhibition assay, IGROV-ET (ET-743 resistant); conditions: Homo sapiens; for GI50: GI=growth inhibition, read-out: GI50 IGROV-ET; for CC50: LC=cell killing (cytotoxic effect); for IC (TGI): TGI=total growth inhibition (cytostatic effect), read-out: TGI IGROV-ET
Method in brief: as §1

PANC-1 = assay: SRB colorimetric cell growth inhibition assay, PANC-1; conditions: Homo sapiens; for GI50: GI=growth inhibition, read-out: GI50 PANC-1; for CC50: LC=cell killing (cytotoxic effect); for IC (TGI): TGI=total growth inhibition (cytostatic effect), read-out: TGI PANC-1
Method in brief: as §1

DU-145 = assay: SRB colorimetric cell growth inhibition assay, DU-145; conditions: Homo sapiens, DU-145, DU-145; for GI50: GI=growth inhibition, read-out: GI50 DU-145; for CC50: LC=cell killing (cytotoxic effect), read-out: LC50 DU-145; for IC (TGI): TGI=total growth inhibition (cytostatic effect), read-out: TGI DU-145
Method in brief: as §1

SK-BR-3 = assay: SRB colorimetric cell growth inhibition assay, SK-BR-3; conditions: Homo sapiens, SK-BR-3, SK-BR-3; for GI50: GI=growth inhibition, read-out: GI50 SK-BR-3; for CC50: LC=cell killing (cytotoxic effect), read-out: LC50 SK-BR-3; for IC (TGI): TGI=total growth inhibition (cytostatic effect), read-out: TGI SK-BR-3
Method in brief: as §1

LoVo = assay: SRB colorimetric cell growth inhibition assay, LoVo; conditions: Homo sapiens; for GI50: GI=growth inhibition, read-out: GI50 LOVO; for CC50: LC=cell killing (cytotoxic effect); for IC (TGI): TGI=total growth inhibition (cytostatic effect), read-out: TGI LOVO
Method in brief: as §1

LNCaP = assay: SRB colorimetric cell growth inhibition assay, LNCaP; conditions: Homo sapiens, LNCaP, LN-caP; for GI50: GI=growth inhibition, read-out: GI50 LN-caP; for CC50: LC=cell killing (cytotoxic effect), read-out: LC50 LN-caP; for IC (TGI): TGI=total growth inhibition (cytostatic effect), read-out: TGI LN-caP
Method in brief: as §1

H-MEC-1 = assay: SRB colorimetric cell growth inhibition assay, H-MEC-1; conditions: Homo sapiens, TGI=total growth inhibition (cytostatic effect)
From the text: as §2, §3, §4, §5, §6

[1] = Homo sapiens, SK-MEL-28, MEL-28; GI=growth inhibition; read-out: GI50 MEL-28
[2] = Homo sapiens, SK-MEL-28, MEL-28; LC=cell killing (cytotoxic effect); read-out: LC50 MEL-28
[3] = Homo sapiens, SK-MEL-28, MEL-28; TGI=total growth inhibition (cytostatic effect); read-out: TGI MEL-28
[4] = Homo sapiens, A549, A-549, read-out: LC50 A-549
[5] = Homo sapiens, LOVO-DOX; GI=growth inhibition; read-out: GI50 LOVO-DOX
[6] = Homo sapiens, LOVO-DOX; LC=cell killing (cytotoxic effect); read-out: LC50 LOVO-DOX
[7] = Homo sapiens, LOVO-DOX; TGI=total growth inhibition (cytostatic effect); read-out: TGI LOVO-DOX
[8] = HT-29, HT-29, read-out: LC50 HT-29
[9] = SK-OV-3, SKOV-3, LC=cell killing (cytotoxic effect), read-out: LC50 SKOV-3
[10] = IGROV-ET, read-out: LC50 IGROV-ET
[11] = PANC-1, PANC-1, read-out: LC50 PANC-1

Compound: COc1cc(-c2c3n(c4c(=O)oc5cc(OC(=O)[C@H](C)N)c(OC)cc5c24)CCc2cc(OC(=O)[C@H](C)N)c(OC)cc2-3)ccc1OC(=O)[C@H](C)N [Compound 42]
- GI50 (SK-MEL-28; [1]): 1.23 µM
- CC50 (SK-MEL-28; [2]): 8.94 µM
- IC (TGI) (SK-MEL-28; [3]): 3.32 µM
- GI50 (A-549; Homo sapiens, A549, A-549): 0.735 µM
- CC50 (A-549; [4]): 9.46 µM
- IC (TGI) (A-549; Homo sapiens, A549, A-549): 2.99 µM
- GI50 (LoVo-Dox; [5]): 0.395 µM
- CC50 (LoVo-Dox; [6]): 9.46 µM
- IC (TGI) (LoVo-Dox; [7]): 2.32 µM
- GI50 (HT-29; HT-29, HT-29): 3.91 µM
- CC50 (HT-29; [8]): 9.46 µM
- IC (TGI) (HT-29; HT-29, HT-29): 9.46 µM
- GI50 (IGROV): 0.185 µM
- CC50 (IGROV): 2.83 µM
- IC (TGI) (IGROV): 0.56 µM
- GI50 (K-562): 0.313 µM
- CC50 (K-562): 5.42 µM
- IC (TGI) (K-562): 1.79 µM
- GI50 (SKOV-3): 1.24 µM
- CC50 (SKOV-3; [9]): 9.46 µM
- IC (TGI) (SKOV-3; SK-OV-3, SKOV-3): 4.44 µM
- GI50 (IGROV-ET; IGROV-ET): 0.238 µM
- CC50 (IGROV-ET; [10]): 6.62 µM
- IC (TGI) (IGROV-ET; IGROV-ET): 0.678 µM
- GI50 (PANC-1; PANC-1, PANC-1): 0.732 µM
- CC50 (PANC-1; [11]): 9.46 µM
- IC (TGI) (PANC-1; PANC-1, PANC-1): 4.06 µM
- GI50 (DU-145): 0.365 µM
- CC50 (DU-145): 9.46 µM
- IC (TGI) (DU-145): 2.28 µM
- GI50 (SK-BR-3): 2 µM
- CC50 (SK-BR-3): 8.04 µM
- IC (TGI) (SK-BR-3): 4.01 µM
- GI50 (LoVo; LoVo): 0.463 µM
- CC50 (LoVo; LoVo, read-out: LC50 LOVO): 9.46 µM
- IC (TGI) (LoVo; LoVo): 3.63 µM
- GI50 (LNCaP): 0.377 µM
- CC50 (LNCaP): 4.91 µM
- IC (TGI) (LNCaP): 1.41 µM

Compound: COc1cc(-c2c3n(c4c(=O)oc5cc(OC(=O)[C@H](C)NC(=O)OC(C)(C)C)c(OC)cc5c24)CCc2c-3cc(OC)c(OC)c2OC(=O)[C@H](C)NC(=O)OC(C)(C)C)ccc1OC(=O)[C@H](C)NC(=O)OC(C)(C)C [Compound 46]
- IC (TGI) (SK-MEL-28; [3]): 0.00417 µM
- IC (TGI) (SK-MEL-28; Homo sapiens, SK-MEL-28; MEL-28; TGI=total growth inhibition (cytostatic effect); read-out: TGI MEL-28): 9.57 µM
- GI50 (A-549; A-549): 2.33 µM
- GI50 (A-549; Homo sapiens, A549, A-549): 1.31 µM
- IC (TGI) (A-549; Homo sapiens, A549, A-549): 9.57 µM
- CC50 (A-549; Homo sapiens, A549, read-out: LC50 A-549, A-549): 9.57 µM
- IC (TGI) (LoVo-Dox; [7]): 0.0957 µM
- CC50 (LoVo-Dox; Homo sapiens, read-out: LC50 LOVO-DOX, LOVO-DOX; LC=cell killing (cytotoxic effect)): 9.57 µM
- IC (TGI) (LoVo-Dox; Homo sapiens; LOVO-DOX; TGI=total growth inhibition (cytostatic effect); read-out: TGI LOVO-DOX): 9.57 µM
- CC50 (HT-29; HT-29, read-out: LC50 HT-29, HT-29): 9.57 µM
- IC (TGI) (HT-29; HT-29): 9.57 µM
- CC50 (SKOV-3; SK-OV-3, read-out: LC50 SKOV-3): 9.57 µM
- CC50 (IGROV-ET; read-out: LC50 IGROV-ET, IGROV-ET): 9.57 µM
- CC50 (PANC-1; PANC-1, read-out: LC50 PANC-1, PANC-1): 9.57 µM
- CC50 (LoVo; LoVo, read-out: LC50 LOVO, LOVO): 9.57 µM
- IC (TGI) (LoVo; LoVo): 0.00932 µM
- IC (TGI) (LoVo; LOVO): 9.57 µM
- IC (TGI) (H-MEC-1; HMEC-1, read-out: TGI H-MEC-1, H-MEC-1): 9.57 µM
- IC (TGI) (H-MEC-1; HMEC-1, H-MEC-1, read-out: TGI H-MEC-1): 0.000847 µM

Compound: COc1cc(-c2c3c4cc(OC)c(OC(=O)[C@H](C)NC(=O)OC(C)(C)C)cc4oc(=O)c3n3ccc4cc(OC(=O)[C@H](C)NC(=O)OC(C)(C)C)c(OC)cc4c23)ccc1OC(=O)[C@H](C)NC(=O)OC(C)(C)C [Compound 41]
- GI50 (SK-MEL-28; [1]): 1.86 µM
- CC50 (SK-MEL-28; [2]): 9.43 µM
- IC (TGI) (SK-MEL-28; [3]): 4.19 µM
- GI50 (A-549; Homo sapiens, A549, A-549): 2.42 µM
- CC50 (A-549; [4]): 9.87 µM
- IC (TGI) (A-549; Homo sapiens, A549, A-549): 8.01 µM
- GI50 (LoVo-Dox; [5]): 4.2 µM
- CC50 (LoVo-Dox; [6]): 9.87 µM
- IC (TGI) (LoVo-Dox; [7]): 9.87 µM
- GI50 (HT-29; HT-29, HT-29): 3.24 µM
- CC50 (HT-29; [8]): 9.87 µM
- IC (TGI) (HT-29; HT-29, HT-29): 8.89 µM
- GI50 (IGROV): 0.0917 µM
- CC50 (IGROV): 4.7 µM
- IC (TGI) (IGROV): 0.492 µM
- GI50 (K-562): 1.77 µM
- CC50 (K-562): 8.02 µM
- IC (TGI) (K-562): 3.76 µM
- GI50 (SKOV-3): 5.95 µM
- CC50 (SKOV-3; [9]): 9.87 µM
- IC (TGI) (SKOV-3; SK-OV-3, SKOV-3): 9.87 µM
- GI50 (IGROV-ET; IGROV-ET): 0.188 µM
- CC50 (IGROV-ET; [10]): 9.87 µM
- IC (TGI) (IGROV-ET; IGROV-ET): 0.852 µM
- GI50 (PANC-1; PANC-1, PANC-1): 2.48 µM
- CC50 (PANC-1; [11]): 9.87 µM
- IC (TGI) (PANC-1; PANC-1, PANC-1): 9.87 µM
- GI50 (DU-145): 0.679 µM
- CC50 (DU-145): 9.87 µM
- IC (TGI) (DU-145): 9.87 µM
- GI50 (SK-BR-3): 1.62 µM
- CC50 (SK-BR-3): 9.87 µM
- IC (TGI) (SK-BR-3): 4.85 µM
- GI50 (LoVo; LoVo): 3.31 µM
- CC50 (LoVo; LoVo, read-out: LC50 LOVO): 9.87 µM
- IC (TGI) (LoVo; LoVo): 9.87 µM
- GI50 (LNCaP): 2.1 µM
- CC50 (LNCaP): 9.87 µM
- IC (TGI) (LNCaP): 6.47 µM

From US7396837B2, “Antitumoral analogs of lamellarins” (Pharma Mar, S.A.U., priority 2002, dated 2008)
